Results: patent publication US12138266B2, “Folate preparations” (APROFOL AG, priority 2018, dated 2024)

Tests used:
human skin = assay: Skin penetration determined by Raman spectroscopy on forearm of a subject; type: in vivo; conditions: for Calcium levoleucovorin penetrated into the skin per area: surface to depth of 30 μm
Description: In a further experiment it was examined if calcium levoleucovorin is able to penetrate skin. Penetration depth was determined by way of Raman spectroscopy. The measurement device was an inverse Raman microscope model 3510 with 60× oil immersion lens and evaluation software SkinTools of the company RiverD Rotterdam and the method were 10 profiles per application, measuring time of 5 seconds per measuring point, 7 steps of 2 μm, 4 steps of 4 μm, spectral range of 400-1800 cm^−1, at a laser excitation wavelength of 785 nm. Signals were generated with the software SkinTools that contains various skin and device specific spectra. The user can add their own spectra to the library. The evaluation is carried out via the CLS procedure (least squares method). The signals are output as a fit coefficient normalized to the fit coefficient of keratin.
For a quantitative indication of the result, a calibration must be carried out with standard series (see Tab. 1 and Tab. 2). First, the sensitivity of bovine serum albumin (BSA) is determined and the mass concentration BSA in g/ml is plotted against the BSA fit coefficient. A linear regression with fixed zero gives slope S. For the active substance, the molar concentration in mmol/ml is plotted against the drug coefficient multiplied by the BSA fit coefficient. This gives the slopes SA of the active ingredient. With the slopes, a so-called quantification factor of the drug can be created (SA/S=C). Multiplied by the factor C, the coefficient of fit of the active substance becomes the quantified value with the unit mmol/g of keratin.
The application of the drug or placebo (sodium gluconate) to the skin of a subject was done as follows: 20 μL was pipetted into an allergy patch and this was then stuck onto the forearm of a subject for a period of 30, 60, 120 and 240 minutes. At the end of the application time, the allergy patch was removed. Prior to determining the Raman profiles, the treated skin area was rubbed with a dry paper towel.

[1] = test system: primary keratinocytes of human skin; conditions: keratinocyte monolayer, MTT, 24 h; concentration based on the undiluted solution (2.5%) or the cream (=100%)
Description: In a preliminary experiment, the usable dose was determined.
For this test, the keratinocytes were seeded on 96-well plates and incubated with five dilutions of the solutions or the cream for 24 h. Subsequently, a vital dye was added and finally, the colour change caused by the conversion of the vital dye in living cells was photometrically quantified.
FIG. 1 and FIG. 2 show the determination of the usable dosage of the test substances. Cytotoxicity test with keratinocytes in monolayer culture after conversion of the vital dye MTT by living cells. The concentration data are based on the undiluted solutions or the cream (=100%). Treatment time=24 h. Untreated cultures served as negative controls. SDS served as a positive control (“dead control”). N=6+SEM
IC70 values were calculated by nonlinear regression (Hill Slope, GraphPad Prism 5.04). The term IC70 denotes the concentration at which the viability of the treated cell culture is reduced to 70% of the untreated control. IC70 is often referred to as the border between toxicity and non-toxic effect.

[2] = test system: reconstructed skin models (epiCS); assay: Bioavailability: transport through reconstructed skin models into basal compartment (LC/MS); type: in vitro ADME, human
Description: In order to test the bioavailability in tissues such as skin, reconstructed skin models (epiCS, CS-1001, CellSystems, Troisdorf) were used which are generated from primary human keratinocytes. These models show a barrier very similar to human skin. They are regularly used as test models for the approval-relevant determination of corrosive or irritating effects of cosmetic raw materials. The skin models can usually be treated with finished products, as they are intended for use by the consumer. Nevertheless, before the skin models are treated with the test products, an assessment of the tolerability of the models is made to avoid overdosing.
The skin models were cultured on a porous membrane as mentioned above. The skin cells growing on it separate an apical compartment (with the skin model) from a basal compartment (with the nutrient medium). Mass transport from the apical to the basal compartment is thus almost exclusively possible through the cells. The only alternative to this is paracellular diffusion, which however, due to the functional tight junctions, is only possible for a few molecules and to a very limited extent. To determine the bioavailability of the products, the barrier is checked for leaks before use by means of resistance measurements. […] Suitable skin models are then treated topically with the test products. After 4 h, 8 h and 24 h, samples of the medium were taken in the basal part of the models to check for the presence and concentration of folates. Each test product and controls are tested at a concentration of three replicates each. The studies were repeated to obtain results from two independent runs. The determination of the folate contents of the media samples was started with the analysis of the 24 h values.
The analysis of the media samples was carried out by way of a LC/MS method established at a commercial service provider. The sensitivity of the method is in the range of 1 nmol/L. Before the start of the investigations, an estimate of the feasibility or a preliminary test was carried out in order to be able to assess the suitability of the method.
In addition, the topically applied amount was reduced to 50 μL each. In addition, in the main experiment, the lower compartment was not filled with medium (contains folic acid) but with 1 mL Hank balanced salt solution (without folic acid). Following a total of 24 hours incubation with the test substances, the skin models were again incubated with Resazurin to. […] In the main trial, two independent passes were completed.
In the lower compartment, 1 mL each of HBSS was initially charged. The results shown in the figures mentioned above were determined from 100 μL aliquots of this buffer amount.
In the apical compartment, 3 μmol of folate (solutions) or 0.3 μmol of folate are supplemented (in 50 μL).

[3] = test system: primary keratinocytes of human skin; assay: Scratch Assay (in vitro wound healing model); type: cell-based; conditions: for free wound surface in photographs: 0.1%
Description: To examine the effect of different folate preparations on wound healing the in vitro model Scratch Assay was employed. This in vitro model comprises the defined injuring of a closed cell layer and the subsequent regrowth of the cells to a closed layer in the presence of the test-substance compared to appropriate controls, i.e. (untreated) cells with no test-substance present.
The experimental procedure for the Scratch Assay was as follows: The employed cells are primary keratinocytes of human skin (C-12005, Promocell, Heidelberg, Germany). […] Three different dosages were then used for the Scratch Assay. Further, cells were cultivated in growth-limiting medium in order to show a possible growth promoting effect of the test substances. For the medium used (C-20011, Promocell, Heidelberg, Germany) a growth limitation could be achieved by either the omission or dilution of epidermal growth factor (EGF) or of a complex mixture of undefined factors derived from […] BPE). Usually, growth-limiting medium was achieved by the omission of EGF. For the actual Scratch Assay keratinocytes were cultivated in appropriate cell culture plates (6-well plates, 657160, Greiner BioOne, Frickenhausen, Germany) bearing position markings. Cells were grown to a closed monolayer. Then, cells were scratched with pipette tip along the position markings, thereby generating a cell free area (scratch, injury). Cell monolayers were washed to remove partially detached cells and then covered with medium comprising the test-substances in appropriate dosages. Regrowth of the cells into the cell free area was observed over time at 0 h, 6 h and 24 h and photographically documented at these times. Analysis was done by marking and calculating the cell-free area (software ImageJ) and comparing the calculated areas at the different time point. […]
FIGS. 4 and 5 show the cell-free area of the induced scratch after 6 h or 24 h. The measured values were expressed as a percentage of the starting area of the respective treatment group. […]

## 5-formyl-(6S)-tetrahydrofolic acid calcium salt [L-FTHF Ca]
Human skin; 30 to 240 minutes application time
  concentration profile in skin over application time: tendency to increased calcium levoleucovorin concentration both in the top 5 μm and deeper layers of the skin
Human skin; application period 30 min
  Amount recovered: 3.76 +/− 2.82 % of amount applied
  Calcium levoleucovorin penetrated into the skin per area: 0.37 +/− 0.27 μmol/cm^2
Human skin; application period 60 min
  Amount recovered: 3.28 +/− 2.58 % of amount applied
  Calcium levoleucovorin penetrated into the skin per area: 0.32 +/− 0.25 μmol/cm^2
Human skin; application period 120 min
  Amount recovered: 6.3 +/− 8.22 % of amount applied
  Calcium levoleucovorin penetrated into the skin per area: 0.62 +/− 0.8 μmol/cm^2
Human skin; application period 240 min, listed as Calcium levoleucovorin, calcium salt
  Amount recovered: 9.96 +/− 3.26 % of amount applied
Human skin; application period 240 min, listed as calcium levoleucovorin, calcium salt
  Amount recovered: 10 % of amount applied
Human skin; application period 240 min
  Calcium levoleucovorin penetrated into the skin per area: 0.97 +/− 0.32 μmol/cm^2
[1]
  IC70 (concentration at which viability is reduced to 70% of the untreated control; usable dose): 0.13%
[2]; after 24 h
  folic acid concentration (comparison with other skin models): twice as high
  methylfolate concentration in basal compartment (comparison): relatively high
[2]; after 24 h, outside calibration line, absolute values uncertain
  formylfolate concentration in basal compartment: 150 µmol/L
[2]; after 24 h supplementation
  folic acid (folate) concentration in basal compartment: about 200 nmol/L

## 5-methyl-(6S)-tetrahydrofolic acid di choline salt [L-MTHF di choline]
[3]; after 6 h
  free wound surface in photographs: hardly any surface is overgrown
[3]; after 24 h
  free wound surface in photographs: it becomes difficult to mark a cell-free area
[1]
  IC70 (concentration at which viability is reduced to 70% of the untreated control; usable dose): 0.14%
[2]; after 4 h, compared with models supplemented with L-FTHF or folate cream
  methylfolate concentration in basal compartment (comparison): significantly higher concentrations
[2]; after 8 h
  formylfolate concentration in recipient compartment (basal): cannot be detected
  methylfolate concentration in basal compartment (comparison): highest concentrations
[2]; after 24 h
  formylfolate in basal compartment samples: cannot be detected
  methylfolate concentration in basal compartment (comparison): significantly higher than the highest standard
[2]; after 24 h, peak outside calibration line, absolute value uncertain
  methylfolate concentration in basal compartment, maximum: 120 µmol/L

## N=C(N)NCCC[C@H](N)C(=O)O.N=C(N)NCCC[C@H](N)C(=O)O.Nc1nc2c(c(=O)[nH]1)N(C=O)[C@@H](CNc1ccc(C(=O)N[C@@H](CCC(=O)O)C(=O)O)cc1)CN2 [L-FTHF di arginine, 5-formyl-(6S)-tetrahydrofolic acid di L-arginine salt]
[3]; after 24 h, versus standard medium and FBS control
  regrowth of cells into cell-free area of scratch: promoted dose-dependent reversal of “healing”
[1]
  IC70 (concentration at which viability is reduced to 70% of the untreated control; usable dose): 0.12%
[2]; after 24 h
  methylfolate concentration in basal compartment (comparison): approximately half
